The NIST ThermoML archive (doi:10.1016/j.jct.2008.01.008)
Numbers after ± are expanded uncertainties.

Assay: xn = mol fraction of the nth substance listed
Details: 298.15 K, 101 kPa, Liquid; for viscosity: Capillary tube (Ostwald / Ubbelohde) method; for speed of sound: Sing-around technique in a fixed-path interferometer

In the case of `COCC(C)OCC(C)OC` (configuration not stated) [2-methoxy-1-(2-methoxy-1-methylethoxy)propane] + CCCCCO, the viscosity (x1 = 0.0005) is reported as 3.49 ± 0.022 mPa·s, the viscosity (x1 = 0.0225) is reported as 3.246 ± 0.021 mPa·s and the viscosity (x1 = 0.0499) is reported as 2.986 ± 0.02 mPa·s. For the same molecule, the viscosity (x1 = 0.0656) was 2.851 ± 0.019 mPa·s, the viscosity (x1 = 0.0946) was 2.627 ± 0.018 mPa·s and the viscosity (x1 = 0.1367) was 2.357 ± 0.017 mPa·s. The viscosity (x1 = 0.194) was 2.078 ± 0.016 mPa·s, the viscosity (x1 = 0.2414) was 1.891 ± 0.015 mPa·s and the viscosity (x1 = 0.2954) was 1.728 ± 0.014 mPa·s. For the same molecule, the viscosity (x1 = 0.3597) was 1.574 ± 0.014 mPa·s, the viscosity (x1 = 0.4152) was 1.464 ± 0.013 mPa·s and the viscosity (x1 = 0.4303) was 1.436 ± 0.013 mPa·s. For the same molecule, the viscosity (x1 = 0.468) was 1.38 ± 0.013 mPa·s, the viscosity (x1 = 0.4941) was 1.345 ± 0.013 mPa·s and the viscosity (x1 = 0.5552) was 1.274 ± 0.013 mPa·s. For the same molecule, the viscosity (x1 = 0.591) was 1.23 ± 0.013 mPa·s, the viscosity (x1 = 0.6625) was 1.169 ± 0.012 mPa·s and the viscosity (x1 = 0.709) was 1.137 ± 0.012 mPa·s. It also gave a viscosity (x1 = 0.7445) of 1.112 ± 0.012 mPa·s, a viscosity (x1 = 0.796) of 1.079 ± 0.012 mPa·s and a viscosity (x1 = 0.8555) of 1.054 ± 0.012 mPa·s. It also gave a viscosity (x1 = 0.9258) of 1.02 ± 0.012 mPa·s, a viscosity (x1 = 0.9803) of 0.9997 ± 0.012 mPa·s and a speed of sound (x1 = 0.0143) of 1274.5 ± 0.83 m/s. It also gave a speed of sound (x1 = 0.0441) of 1272 ± 0.82 m/s, a speed of sound (x1 = 0.1045) of 1266.6 ± 0.82 m/s and a speed of sound (x1 = 0.1523) of 1262.4 ± 0.82 m/s. For the same molecule, the speed of sound (x1 = 0.2149) was 1257.2 ± 0.82 m/s, the speed of sound (x1 = 0.2431) was 1255 ± 0.82 m/s and the speed of sound (x1 = 0.2986) was 1250.7 ± 0.82 m/s. It also gave a speed of sound (x1 = 0.3419) of 1247.5 ± 0.82 m/s, a speed of sound (x1 = 0.374) of 1245 ± 0.82 m/s and a speed of sound (x1 = 0.4018) of 1243.2 ± 0.82 m/s. It also gave a speed of sound (x1 = 0.4549) of 1239.5 ± 0.81 m/s, a speed of sound (x1 = 0.5038) of 1236.6 ± 0.81 m/s and a speed of sound (x1 = 0.5334) of 1234.7 ± 0.81 m/s. For the same molecule, the speed of sound (x1 = 0.6034) was 1230.3 ± 0.81 m/s, the speed of sound (x1 = 0.6553) was 1226.5 ± 0.81 m/s and the speed of sound (x1 = 0.6968) was 1224 ± 0.81 m/s. For the same molecule, the speed of sound (x1 = 0.7505) was 1221.2 ± 0.81 m/s, the speed of sound (x1 = 0.7962) was 1218.6 ± 0.81 m/s and the speed of sound (x1 = 0.8509) was 1215.1 ± 0.81 m/s. It also gave a speed of sound (x1 = 0.9071) of 1211 ± 0.81 m/s, a speed of sound (x1 = 0.9476) of 1208.7 ± 0.81 m/s and a speed of sound (x1 = 0.96) of 1207.8 ± 0.8 m/s. It also gave a mass density (x1 = 0.0143) of 813.241 ± 0.45 kg/m3, a mass density (x1 = 0.0441) of 817.684 ± 0.44 kg/m3 and a mass density (x1 = 0.1045) of 826.045 ± 0.43 kg/m3. It also gave a mass density (x1 = 0.1523) of 832.101 ± 0.42 kg/m3, a mass density (x1 = 0.2149) of 839.509 ± 0.41 kg/m3 and a mass density (x1 = 0.2431) of 842.645 ± 0.41 kg/m3. It also gave a mass density (x1 = 0.2986) of 848.553 ± 0.4 kg/m3, a mass density (x1 = 0.3419) of 852.922 ± 0.39 kg/m3 and a mass density (x1 = 0.374) of 856.019 ± 0.39 kg/m3. The mass density (x1 = 0.4018) was 858.624 ± 0.38 kg/m3, the mass density (x1 = 0.4549) was 863.364 ± 0.38 kg/m3 and the mass density (x1 = 0.5038) was 867.504 ± 0.37 kg/m3. For the same molecule, the mass density (x1 = 0.5334) was 869.911 ± 0.36 kg/m3, the mass density (x1 = 0.6034) was 875.242 ± 0.36 kg/m3 and the mass density (x1 = 0.6553) was 878.913 ± 0.35 kg/m3. For the same molecule, the mass density (x1 = 0.6968) was 881.667 ± 0.35 kg/m3, the mass density (x1 = 0.7505) was 885.025 ± 0.34 kg/m3 and the mass density (x1 = 0.7962) was 887.727 ± 0.34 kg/m3. For the same molecule, the mass density (x1 = 0.8509) was 890.774 ± 0.34 kg/m3, the mass density (x1 = 0.9071) was 893.759 ± 0.33 kg/m3 and the mass density (x1 = 0.9476) was 895.868 ± 0.33 kg/m3. The mass density (x1 = 0.96) was 896.501 ± 0.33 kg/m3.

For `COCC(C)OCC(C)OC` (configuration not stated) [2-methoxy-1-(2-methoxy-1-methylethoxy)propane] + CCCCCCCO, the viscosity (x1 = 0.0148) was 5.604 ± 0.033 mPa·s, the viscosity (x1 = 0.0292) was 5.348 ± 0.032 mPa·s and the viscosity (x1 = 0.0718) was 4.664 ± 0.028 mPa·s. The viscosity (x1 = 0.1196) was 4.033 ± 0.025 mPa·s, the viscosity (x1 = 0.1575) was 3.611 ± 0.023 mPa·s and the viscosity (x1 = 0.1902) was 3.294 ± 0.021 mPa·s. It also gave a viscosity (x1 = 0.2555) of 3.016 ± 0.3 mPa·s, a viscosity (x1 = 0.2613) of 2.766 ± 0.022 mPa·s and a viscosity (x1 = 0.3119) of 2.468 ± 0.017 mPa·s. It also gave a viscosity (x1 = 0.3616) of 2.235 ± 0.016 mPa·s, a viscosity (x1 = 0.4129) of 2.031 ± 0.015 mPa·s and a viscosity (x1 = 0.4366) of 1.949 ± 0.015 mPa·s. For the same molecule, the viscosity (x1 = 0.4532) was 1.895 ± 0.015 mPa·s, the viscosity (x1 = 0.511) was 1.736 ± 0.014 mPa·s and the viscosity (x1 = 0.5326) was 1.673 ± 0.014 mPa·s. It also gave a viscosity (x1 = 0.5897) of 1.543 ± 0.014 mPa·s, a viscosity (x1 = 0.6424) of 1.432 ± 0.013 mPa·s and a viscosity (x1 = 0.7111) of 1.309 ± 0.013 mPa·s. The viscosity (x1 = 0.7457) was 1.25 ± 0.013 mPa·s, the viscosity (x1 = 0.7977) was 1.178 ± 0.012 mPa·s and the viscosity (x1 = 0.8531) was 1.117 ± 0.012 mPa·s. It also gave a viscosity (x1 = 0.8927) of 1.079 ± 0.012 mPa·s, a viscosity (x1 = 0.9421) of 1.041 ± 0.012 mPa·s and a viscosity (x1 = 0.9678) of 1.02 ± 0.012 mPa·s. It also gave a viscosity (x1 = 0.9935) of 0.9994 ± 0.012 mPa·s, a speed of sound (x1 = 0.0609) of 1317.8 ± 0.84 m/s and a speed of sound (x1 = 0.1164) of 1309.7 ± 0.84 m/s. The speed of sound (x1 = 0.157) was 1303 ± 0.83 m/s, the speed of sound (x1 = 0.2117) was 1295.5 ± 0.83 m/s and the speed of sound (x1 = 0.259) was 1289.2 ± 0.83 m/s. The speed of sound (x1 = 0.3132) was 1281.7 ± 0.83 m/s, the speed of sound (x1 = 0.3539) was 1276.4 ± 0.83 m/s and the speed of sound (x1 = 0.406) was 1270.5 ± 0.82 m/s. For the same molecule, the speed of sound (x1 = 0.4533) was 1264.9 ± 0.82 m/s, the speed of sound (x1 = 0.5056) was 1258.8 ± 0.82 m/s and the speed of sound (x1 = 0.552) was 1253.6 ± 0.82 m/s. It also gave a speed of sound (x1 = 0.5935) of 1249.2 ± 0.82 m/s, a speed of sound (x1 = 0.6316) of 1245.4 ± 0.82 m/s and a speed of sound (x1 = 0.7137) of 1236.2 ± 0.81 m/s. For the same molecule, the speed of sound (x1 = 0.7666) was 1231 ± 0.81 m/s, the speed of sound (x1 = 0.8059) was 1226.6 ± 0.81 m/s and the speed of sound (x1 = 0.8495) was 1222.1 ± 0.81 m/s. The speed of sound (x1 = 0.9026) was 1216.1 ± 0.81 m/s, the speed of sound (x1 = 0.9293) was 1213 ± 0.81 m/s and the speed of sound (x1 = 0.9527) was 1210.7 ± 0.81 m/s. It also gave a mass density (x1 = 0.0609) of 825.134 ± 0.43 kg/m3, a mass density (x1 = 0.1164) of 830.66 ± 0.42 kg/m3 and a mass density (x1 = 0.157) of 834.553 ± 0.42 kg/m3. The mass density (x1 = 0.2117) was 839.681 ± 0.41 kg/m3, the mass density (x1 = 0.259) was 843.957 ± 0.4 kg/m3 and the mass density (x1 = 0.3132) was 848.706 ± 0.4 kg/m3. The mass density (x1 = 0.3539) was 852.157 ± 0.39 kg/m3, the mass density (x1 = 0.406) was 856.458 ± 0.39 kg/m3 and the mass density (x1 = 0.4533) was 860.298 ± 0.38 kg/m3. The mass density (x1 = 0.5056) was 864.403 ± 0.37 kg/m3, the mass density (x1 = 0.552) was 867.948 ± 0.37 kg/m3 and the mass density (x1 = 0.5935) was 871.045 ± 0.36 kg/m3. For the same molecule, the mass density (x1 = 0.6316) was 873.865 ± 0.36 kg/m3, the mass density (x1 = 0.7137) was 879.729 ± 0.35 kg/m3 and the mass density (x1 = 0.7666) was 883.415 ± 0.34 kg/m3. It also gave a mass density (x1 = 0.8059) of 886.098 ± 0.34 kg/m3, a mass density (x1 = 0.8495) of 889.001 ± 0.34 kg/m3 and a mass density (x1 = 0.9026) of 892.554 ± 0.33 kg/m3. The mass density (x1 = 0.9293) was 894.156 ± 0.33 kg/m3 and the mass density (x1 = 0.9527) was 895.635 ± 0.33 kg/m3.
